Where a SMILES comes first, the peptide text is derived from it. Bridges are numbered along the chain shown (N, C = ends). The star is where a group is joined. Lauroyl = CCCCCCCCCCCC(=O)*
Tests used:
[1] = Binding of C12TerA to hydrophobic polymeric carrier (Scatchard plot, bound/free by HPLC); conditions: carrier 2.5 mg/tube, PBS, incubated overnight; estimated, plot not completely linear
Excerpt: FIG. 17: This figure is a Scatchard plot showing the binding of C12TerA to polymeric carrier containing a hydrophobic group disclosed in U.S. patent application Ser. No. 11/613,183, which is hereby incorporated by reference. The carrier also referred to as PGC-HC18 or 20PLPEG555-C18 is made up of polylysine of 15-30 kDa where 55% of the amino group is covalently modified to contain 5 kDa methoxypolyethylene glycol attached by through succinate linker and the remaining 45% of the amino group is amide bonded to stearic acid carboxyl group all disclosed in U.S. patent application Ser. No. 11/613,183. […] The filtrate containing […] C12TerA was quantified by HPLC. […] It should be noted that some C12TerA can form micelle and may be counted as bound due to the analytical techniques used.
FIG. 17 is a Scatchard plot showing the binding of C12TerA to polymeric carrier containing a hydrophobic group disclosed in U.S. patent application Ser. No. 11/613,183, which is hereby incorporated by reference. […] The filtrate containing […] C12TerA was quantified by HPLC. […] It should be noted that some C12TerA can form micelle and may be counted as bound due to the analytical techniques used.
The amount of C12TerA capable of being bound to a carrier was determined by varying the amount of the analog in the presence of 10 mg/ml hydrophobic group containing carrier PGC-HC18 or 20PLPEG555-C18. […]

[2] = Solubility in water of the synthesized peptide; type: physicochemical; conditions: in words

Q: What does the source list for `CCCCCCCCCCCC(=O)NCC(=O)NCC(=O)NCC(=O)N[C@H]1CSSC[C@@H](C(=O)N2CCC[C@H]2C(=O)N[C@@H](CCCCN)C(=O)NCC(N)=O)NC(=O)[C@H](CC(N)=O)NC(=O)[C@H](CCC(N)=O)NC(=O)[C@H](Cc2ccccc2)NC(=O)[C@H](Cc2ccc(O)cc2)NC1=O` [C12TerA, CH3(CH2)10CO-Gly-Gly-Gly-Cys-Tyr-Phe-Gln-Asn-Cys-Pro-Lys-Gly-NH2] (Lauroyl-GGGCYFQNCPKG-NH2; disulfide 4-9)?
A: Kd [1]: 1000 to 5000 nM; solubility in water [2]: limited solubility in water

Source: patent US8518876B2, “Composition for long-acting peptide analogs” (Pharmaln Corporation, priority 2007, dated 2013)
